Results: US6653478B2, “Substituted benzimidazol-2-ones as vasopressin receptor antagonists and neuropeptide Y modulators” (Ortho-McNeil Pharmaceutical, Inc., priority 2000, dated 2003)
pIC50: −log10 of the molar value. Structures can show the parent of a compound that is named as a salt.

How the values were obtained:
human V2 receptor [1] = molecular target: T1, human V2 receptor (Homo sapiens, UniProt P30518); assay: V2 binding assay (3H-AVP displacement, HEK-293 membranes); set-up: expressed in transfected cells; host or cells: HEK-293 (membranes); details: for inhibition at 1 µM: 1.0 μM compound, read-out: V2@1.0, % Inh; for inhibition at 10 µM: 10 μM compound, read-out: V2 % Inh @10
How it was run: (§1)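 Tracer 3H-AVP, 10,000 cpm/well; buffer 50 mM Tris/5 mM MgCl2/0.1% BSA pH 7.5 + Pefabloc, aprotinin, leupeptin, pepstatin A, bacitracin; NSB 1.25 μM AVP; 1 h RT; GF/C filtration (0.3% PEI); scintillation count with quench correction.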

human V1a receptor [2] = molecular target: T2, human V1a receptor (Homo sapiens, UniProt P37288); assay: V1a binding assay (3H-AVP displacement, HEK-293 membranes); set-up: expressed in transfected cells; host or cells: HEK-293 (membranes); details: for inhibition at 1 µM: 1.0 μM compound, read-out: V1a@1.0, % Inh
How it was run: as §1

NPY2 receptors = molecular target: T3, NPY2 receptors (Homo sapiens, UniProt P49146); assay: Neuropeptide Y receptor binding assay (125I-PYY, KAN-TS cell membranes); details: 10 μM compound; read-out: NPY-2@10, % Inh
T3 construct: Cell Membranes from KAN-TS cells having NPY2 receptors; endogenous in cells; host or cells: KAN-TS cells (membranes)
T3 sequence (P49146 1-381): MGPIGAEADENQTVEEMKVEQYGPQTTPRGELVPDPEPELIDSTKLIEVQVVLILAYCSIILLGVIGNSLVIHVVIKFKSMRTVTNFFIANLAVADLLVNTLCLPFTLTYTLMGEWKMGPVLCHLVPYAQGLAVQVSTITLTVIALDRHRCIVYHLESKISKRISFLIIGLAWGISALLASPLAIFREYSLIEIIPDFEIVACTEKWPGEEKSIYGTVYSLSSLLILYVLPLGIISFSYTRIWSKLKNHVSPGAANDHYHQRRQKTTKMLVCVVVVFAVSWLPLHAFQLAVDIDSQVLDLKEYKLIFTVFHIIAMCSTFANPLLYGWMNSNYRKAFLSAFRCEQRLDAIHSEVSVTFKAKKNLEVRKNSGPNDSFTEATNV
How it was run: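 Membranes from KAN-TS cells competed with 125I-PYY in binding buffer containing BSA, test compound at 10 μM final, 1 hr at room temperature. Nonspecific binding defined with 1 μM PYY final. Tubes centrifuged, washed with PBS and bound radioactivity gamma-counted.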

human V1b receptor [3] = molecular target: T4, human V1b receptor (Homo sapiens, UniProt P47901); assay: V1b binding assay (3H-AVP displacement, HEK-293 membranes); set-up: expressed in transfected cells; host or cells: HEK-293 (membranes); details: 10 μM compound; read-out: V1b % Inh @10
T4 sequence (P47901 1-424): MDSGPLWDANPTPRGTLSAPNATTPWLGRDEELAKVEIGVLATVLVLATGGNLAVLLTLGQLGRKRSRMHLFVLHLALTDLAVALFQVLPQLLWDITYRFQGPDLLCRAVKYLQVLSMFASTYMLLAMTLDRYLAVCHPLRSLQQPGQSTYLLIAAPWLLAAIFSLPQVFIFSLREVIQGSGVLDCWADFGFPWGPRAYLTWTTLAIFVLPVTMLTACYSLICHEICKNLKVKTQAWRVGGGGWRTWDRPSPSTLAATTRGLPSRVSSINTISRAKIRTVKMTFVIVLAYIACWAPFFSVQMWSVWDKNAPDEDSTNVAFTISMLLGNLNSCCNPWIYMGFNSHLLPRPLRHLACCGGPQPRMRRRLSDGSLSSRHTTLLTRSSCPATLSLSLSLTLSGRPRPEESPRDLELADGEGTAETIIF
How it was run: as §1

human V2 receptor [4] = molecular target: T1, human V2 receptor; assay: V2 functional assay, cAMP accumulation in transfected HEK-293 cells; format: cell-based; set-up: expressed in transfected cells; host or cells: HEK-293; details: HEK293; 30 μM compound; read-out: Cell-Based Functional activity V2 % Inh. @ 30
Method: (§2) V1a, V1b or V2 Functional Assay
(§3) HEK-293 cells were grown in DMEM media supplemented with 10% FBS and glutamine (Gibco BRL, Grand Island, N.Y.). Once transfected the cells were passed biweekly by trypsinization and seeded into 96 well plates at 33,000 cells per well. HEK-293 were transfected with human V1a, V1b or V2 DNA using DMRIE-C reagent from Life Technologies, Inc., Grand Island, N.Y. Cells were tested for their responsiveness to vasopressin 48 hours after transfection. Stable lines were generated by selecting cells grown in culture media containing geneticin (500 μg/ml, Life Technologies).
The accumulation of cAMP was measured in transfected HEK-293 expressing the human V2 receptor. The cells were cultured 4-7 days in 96-well plates. On the day of assay, cells were washed twice in assay media (DMEM/F12 containing 0.1% BSA). The cells were treated with the test compound for 5 minutes and then given AVP (1 nM) in assay media containing 1 mM isobutylmethylxanthine. After 5 minutes, 0.5 N HCl was added to disrupt the cells and solubilize cAMP. The cAMP content of 20 μl of the cell lysate in each well was measured using cAMP Flashplates (NEN Life Sciences). Data are expressed as pmol cAMP/well. While the assay is optimized to detect and quantitate antagonistic activity, agonistic activity would also be apparent at the higher concentrations of test compounds.
(§4) The data from the cAMP accumulation and the calcium mobilization assays are expressed as IC50 values as determined from dose response curves.

human V1b receptor [5] = molecular target: T4, human V1b receptor; assay: V1b functional assay, intracellular calcium mobilization in transfected HEK-293 cells (FLIPR); format: cell-based; set-up: expressed in transfected cells; host or cells: HEK-293; details: HEK293; 30 μM compound; read-out: Cell-Based Functional activity V1b % Inh. @ 30
Method: as §2, §3
(§5) Intracellular calcium mobilization was measured in HEK-293 cells transfected to express either human V1a, oxytocin or V1b receptors. Cells were plated into black 96-well Packard Clear-View plates 4 to 7 days prior to use. The cells were loaded with fluo-3 AM (Molecular Probes, Inc., Eugene, Oreg.) in buffer (25 mM Hepes, 125 mM NaCl, 1 gm/l glucose, 0.1% BSA, 5 mM KCl, 0.5 mM CaCl2, 0.5 mM MgCl2, pH 7.45) containing Pluronic (Molecular Probes) Cells were incubated with 5 μM fluo-3 AM for 1 hour shielded from light at room temperature. Intracellular fluorescence was measured using FLIPR (fluorometric imaging plate reader; Molecular Devices, Inc., Sunnyvale, Calif.). The FLIPR protocol called for images to be collected at one second intervals with 50 μl of the test compound added after the initial 10 images. An additional 70 images were then taken to detect any compound agonistic activity. FLIPR then added 50 μl of agonist peptide and collected a final 40 images for quantitating compound antagonistic activity. V1a- and V1b-expressing HEK cells were challenged with 1 nM and 0.5 nM AVP, respectively. Oxytocin-expressing HEK cells were challenged with 0.5 nM oxytocin (Peninsula Labs).
as §4

human V1a receptor [6] = molecular target: T2, human V1a receptor; assay: V1a functional assay, intracellular calcium mobilization in transfected HEK-293 cells (FLIPR); set-up: expressed in transfected cells; host or cells: HEK-293; details: challenge 1 nM AVP; read-out: Cell-Based Functional activity V1a IC50
Method: as §2, §3, §5, §4

human V1a receptor [7] = molecular target: T2, human V1a receptor; set-up: expressed in transfected cells; host or cells: HEK-293; details: stated in literature; cited from earlier work
V1a = V1a (Rattus norvegicus, UniProt P30560); details: stated in literature; cited from earlier work
Sequence of V1a (P30560 whole entry): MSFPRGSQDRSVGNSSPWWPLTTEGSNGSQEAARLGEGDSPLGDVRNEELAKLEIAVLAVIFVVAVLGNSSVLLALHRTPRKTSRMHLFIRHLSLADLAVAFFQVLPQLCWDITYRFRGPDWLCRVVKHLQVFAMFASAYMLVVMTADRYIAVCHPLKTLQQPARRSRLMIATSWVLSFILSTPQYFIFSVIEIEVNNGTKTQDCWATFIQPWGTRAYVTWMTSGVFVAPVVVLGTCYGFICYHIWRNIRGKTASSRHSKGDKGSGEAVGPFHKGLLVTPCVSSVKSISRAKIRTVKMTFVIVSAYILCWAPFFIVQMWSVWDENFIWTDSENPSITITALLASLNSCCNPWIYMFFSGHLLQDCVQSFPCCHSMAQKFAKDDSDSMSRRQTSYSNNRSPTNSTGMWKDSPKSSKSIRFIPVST

T1 sequence (P30518 whole entry): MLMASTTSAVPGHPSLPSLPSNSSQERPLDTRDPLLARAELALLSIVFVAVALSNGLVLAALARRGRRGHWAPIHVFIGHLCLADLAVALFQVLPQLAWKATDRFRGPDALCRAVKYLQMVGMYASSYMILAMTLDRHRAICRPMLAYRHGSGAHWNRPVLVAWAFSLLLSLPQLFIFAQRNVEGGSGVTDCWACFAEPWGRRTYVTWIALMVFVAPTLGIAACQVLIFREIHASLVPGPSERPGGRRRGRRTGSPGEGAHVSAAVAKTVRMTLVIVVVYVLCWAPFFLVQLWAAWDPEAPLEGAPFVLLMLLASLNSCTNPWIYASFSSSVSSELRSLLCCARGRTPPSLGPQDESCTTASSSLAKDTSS
T2 sequence (P37288 whole entry): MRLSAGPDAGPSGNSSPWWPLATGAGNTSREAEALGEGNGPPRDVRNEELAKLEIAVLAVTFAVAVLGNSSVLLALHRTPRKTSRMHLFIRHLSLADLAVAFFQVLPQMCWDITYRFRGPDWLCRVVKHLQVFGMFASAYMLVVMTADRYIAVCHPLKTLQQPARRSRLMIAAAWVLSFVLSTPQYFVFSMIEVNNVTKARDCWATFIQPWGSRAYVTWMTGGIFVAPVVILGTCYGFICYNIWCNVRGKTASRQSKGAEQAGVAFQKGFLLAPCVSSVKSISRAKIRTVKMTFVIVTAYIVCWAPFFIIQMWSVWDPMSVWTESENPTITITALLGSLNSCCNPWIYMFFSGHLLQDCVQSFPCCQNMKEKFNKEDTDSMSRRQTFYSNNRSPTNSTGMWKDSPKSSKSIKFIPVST

## NCCCn1c(=O)n(C2CCN(C(=S)NC(c3ccccc3)c3ccccc3)CC2)c2ccccc21 (as salt: hydrochloride) [Compound 55, 1-[(N1-Piperidinocarbothioyldiphenylmethylamino)-4-yl]-3-(3-aminopropyl)-1,3-dihydrobenzimidazol-2-one Monohydrochloride]
other
  melting point: 189 to 190 °C

## O=c1[nH]c2ccccc2n1C1CCN(C(=S)NCCc2ccc(Cl)cc2)CC1 [Compound 2]
Human V2 receptor [1]
  inhibition at 1 µM: 7%
Human V1a receptor [2]
  inhibition at 1 µM: 21%
NPY2 receptors
  inhibition at 10 µM: 1%
other
  melting point: 234 to 236 °C
Human V1b receptor [3]
  inhibition at 10 µM: 0%

## O=c1[nH]c2ccccc2n1C1CCN(C(=S)Nc2ccccc2)CC1 [Compound 3]
Human V2 receptor [1]
  inhibition at 1 µM: 7%
Human V1a receptor [2]
  inhibition at 1 µM: 0%
NPY2 receptors
  inhibition at 10 µM: 13%
other
  melting point: 250 to 252 °C
Human V1b receptor [3]
  inhibition at 10 µM: 0%

## COc1ccc(NC(=S)N2CCC(n3c(=O)[nH]c4ccccc43)CC2)cc1 [Compound 5]
Human V2 receptor [1]
  inhibition at 1 µM: 34%
Human V1a receptor [2]
  inhibition at 1 µM: 38%
NPY2 receptors
  inhibition at 10 µM: 14%
other
  melting point: 238 to 243 °C
Human V1b receptor [3]
  inhibition at 10 µM: 8%

## O=c1[nH]c2ccccc2n1C1CCN(C(=S)NCc2ccccc2Cl)CC1 [Compound 12]
Human V2 receptor [1]
  inhibition at 10 µM: 5%
Human V1a receptor [2]
  pIC50: 5.60
NPY2 receptors
  inhibition at 10 µM: 21%
other
  melting point: 181 to 184 °C
Human V1b receptor [3]
  inhibition at 10 µM: 0%

## O=c1[nH]c2ccccc2n1C1CCN(C(=S)NCC(c2ccccc2)c2ccccc2)CC1 [Compound 13]
Human V2 receptor [1]
  inhibition at 10 µM: 4%
Human V1a receptor [2]
  pIC50: 5.92
NPY2 receptors
  inhibition at 10 µM: 22%
other
  melting point: 230 to 233 °C
Human V1b receptor [3]
  inhibition at 10 µM: 1%

## COC(=O)[C@@H](Cc1ccccc1)NC(=S)N1CCC(n2c(=O)n(CCCNC(=N)N)c3ccccc32)CC1 [Compound 58]
Human V2 receptor [4]
  inhibition at 30 µM: 0%
Human V1b receptor [5]
  inhibition at 30 µM: 0%
Human V1a receptor [2]
  inhibition at 1 µM: 52%
NPY2 receptors
  inhibition at 10 µM: 2%
Human V1a receptor [6]
  pIC50: 5.84

## CC(=O)NCCCOc1ccc(C(=O)N2CCC(N3C(=O)CCc4ccccc43)CC2)cc1 [OPC 21268]
Human V1a receptor [7]
  activity when tested for binding to human V1a receptor: no activity
V1a
  activity in rat: only active in rat
